{
  "source": "paper PMC8546056",
  "about": "(Nature Communications, 2021)",
  "key": {"[1]": {"test_system": "T1, B/Malaysia/2506/2004 NA", "T1 construct": "recombinant NA secreted from High Five insect cells (baculovirus); N-terminal VASP tetramerization domain", "type": "biochemical, Influenza B virus"}, "[2]": {"biological_target": "WSEIV NA (Wuhan spiny eel influenza virus, UniProt A0A2P1GNP4)", "type": "biochemical"}, "[3]": {"test_system": "CC(=O)N[C@H]1[C@H]([C@H](O)[C@H](O)CO)O[C@](Oc2ccc3c(C)cc(=O)oc3c2)(C(=O)O)C[C@@H]1O", "test": "purified protein", "settings": "37.0 °C"}},
  "data": [
    {"compound": "CC(=O)N[C@H]1[C@H]([C@H](O)[C@H](O)CO)O[C@](Oc2ccc3c(C)cc(=O)oc3c2)(C(=O)O)C[C@@H]1O", "note": "[MUNANA, 4-methylumbelli-feryl N-acetyl-α-D-neuraminic acid]", "values": [
      {"measurement": "Km", "setting": "[1]", "result": "137 ± 23.7", "unit": "µM"}
    ]},
    {"compound": "CCOC(=O)C1=C[C@@H](OC(CC)CC)[C@H](NC(C)=O)[C@@H](N)C1", "note": "[oseltamivir]", "values": [
      {"measurement": "dose-dependent inhibition", "setting": "[2]", "result": "The WSEIV NA was sensitive to oseltamivir"}
    ]},
    {"compound": "WSEIV NA (Wuhan spiny eel influenza virus)", "values": [
      {"measurement": "Km", "setting": "[3]", "result": "118.5 ± 18.3", "unit": "µM"}
    ]}
  ]
}
